Assays:
human LTA4 hydrolase = target: T1, human LTA4 hydrolase (Homo sapiens, UniProt P09960); experiment: LTA4H Enzyme assay (cleavage of Arg-AMC, fluorescence); type: biochemical; details: LTA4H Enzyme 1 nM, Arg-AMC substrate 50 μM, room temperature 1 h, fluorescence; read-out: IC50 values of LTA4H Enzyme assay
T1 sequence (P09960 1-611): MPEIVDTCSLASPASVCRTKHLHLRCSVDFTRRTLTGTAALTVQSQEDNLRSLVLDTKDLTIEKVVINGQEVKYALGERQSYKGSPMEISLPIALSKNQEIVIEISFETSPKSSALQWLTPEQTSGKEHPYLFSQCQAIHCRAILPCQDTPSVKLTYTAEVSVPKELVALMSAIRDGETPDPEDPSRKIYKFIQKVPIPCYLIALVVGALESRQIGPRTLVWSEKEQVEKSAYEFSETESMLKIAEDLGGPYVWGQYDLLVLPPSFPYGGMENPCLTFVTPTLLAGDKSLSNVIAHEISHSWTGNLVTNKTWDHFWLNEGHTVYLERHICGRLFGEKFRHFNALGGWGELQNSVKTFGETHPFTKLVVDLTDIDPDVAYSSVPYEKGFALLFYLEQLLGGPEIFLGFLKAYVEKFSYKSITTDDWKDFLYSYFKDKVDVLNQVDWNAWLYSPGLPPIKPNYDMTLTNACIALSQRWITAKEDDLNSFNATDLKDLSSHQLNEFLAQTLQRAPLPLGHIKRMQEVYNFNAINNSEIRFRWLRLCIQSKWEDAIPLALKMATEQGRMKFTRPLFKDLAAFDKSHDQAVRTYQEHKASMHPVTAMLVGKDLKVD
In short: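 Aminomethylcoumarin release measured fluorimetrically (380/460 nm) after 1 h at room temperature. Reaction: 1 nM final enzyme, 50 μM final Arg-AMC and compound in Tris-HCl pH 7.5 with 100 mM KCl and 0.5% BSA.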

[1] = test system: synthesis of LTB4 in human whole blood; experiment: human whole blood (HWB) assay, LTB4 production inhibition after calcimycin stimulation; type: cell-based; details: heparinized human whole blood, calcimycin 20 μM, plasma LTB4 by HTRF
Protocol: The compounds of the invention are additionally tested in a human whole blood (HWB) assay to determine their ability to inhibit the synthesis of LTB4 in a cellular system. Compounds are combined with heparinized human whole blood and incubated for 15 minutes at 37° C. Calcimycin (20 μM final, prepared in phosphate-buffered saline, pH 7.4) is then added and the mixture is incubated for another 30 minutes at 37° C. The samples are centrifuged for 5 min at low speed (1500×g) and the plasma layer is removed. Plasma LTB4 concentrations are then measured using an antibody-based homogenous time-resolved fluorescence method (CisBio, Bedford, Mass.). In general, the preferred potency range (IC50) of compounds in the HWB assay is between 10 nM to 10 μM, the more preferred potency range is 10 nM to 1 μM, and the most preferred potency range is 10 nM to 100 nM.

SMILES | IC50 (human LTA4 hydrolase) | IC50 [1]
O=C(O)CCCC1CCN(Cc2ccc(C3COc4ccccc4O3)cc2)CC1 (racemic) [Example 26, 4-{1-[4-(2,3-dihydro-1,4-benzodioxin-2-yl)benzyl]piperidin-4-yl}butanoic acid] | 0.43 nM | 308 nM
O=C(C1CCN(Cc2ccc(C3COc4ccccc4O3)cc2)CC1)N1CCOCC1 (racemic) [Example 37, {1-[4-(2,3-dihydro-1,4-benzodioxin-2-yl)benzyl]piperidin-4-yl}(morpholin-4-yl)methanone] | 1.05 nM | 324 nM
O=C(NCCO)C1CCN(Cc2ccc(C3COc4ccccc4O3)cc2)CC1 (racemic) [Example 52, 1-[4-(2,3-dihydro-1,4-benzodioxin-2-yl)benzyl]-N-(2-hydroxyethyl)piperidine-4-carboxamide] | 0.75 nM | 145 nM
NC(=O)NC1CCN(Cc2ccc(C3COc4ccccc4O3)cc2)CC1 (racemic) [Example 53, 1-{1-[4-(2,3-dihydro-1,4-benzodioxin-2-yl)benzyl]piperidin-4-yl}urea] | 0.42 nM | 155 nM
O=C(O)C1CCN(Cc2ccc([C@H]3COc4ccccc4O3)cc2)C1 (stereo partly drawn) [Example 61, 1-{4-[(2S)-2,3-dihydro-1,4-benzodioxin-2-yl]benzyl}pyrrolidine-3-carboxylic acid] | 0.6 nM | 250 nM
CC(=O)N1CC[C@@H](NCc2ccc([C@H]3COc4ccccc4O3)cc2)C1 [Example 64, 1-[(3R)-3-({4-[(2S)-2,3-dihydro-1,4-benzodioxin-2-yl]benzyl}amino)pyrrolidin-1-yl]ethanone] | 0.83 nM | 158 nM
CN(Cc1ccc([C@H]2COc3ccccc3O2)cc1)C1CCCCC1 [Example 67, N-{4-[(2S)-2,3-dihydro-1,4-benzodioxin-2-yl]benzyl}-N-methylcyclohexanamine] | 0.61 nM | 346 nM
OCC1CCCN(Cc2ccc([C@H]3COc4ccccc4O3)cc2)C1 (stereo partly drawn) [Example 69, (1-{4-[(2S)-2,3-dihydro-1,4-benzodioxin-2-yl]benzyl}piperidin-3-yl)methanol] | 0.6 nM | 165 nM
OC[C@H]1CCCC[C@H]1NCc1ccc([C@H]2COc3ccccc3O2)cc1 [Example 87, [(1S,2R)-2-({4-[(2S)-2,3-dihydro-1,4-benzodioxin-2-yl]benzyl}amino)cyclohexyl]methanol] | 0.69 nM | 268 nM
O=C1CCCN1CC1CCN(Cc2ccc([C@H]3COc4ccccc4O3)cc2)CC1 [Example 99, 1-[(1-{4-[(2S)-2,3-dihydro-1,4-benzodioxin-2-yl]benzyl}piperidin-4-yl)methyl]pyrrolidin-2-one] | 0.37 nM | 95 nM

The next compounds have a lower IC50 (human LTA4 hydrolase) than those just listed; values first:

IC50 (human LTA4 hydrolase) | IC50 [1] | SMILES
0.27 nM | 155 nM | CC(=O)N1CCC(N(C)Cc2ccc([C@H]3COc4ccccc4O3)cc2)CC1 [Example 14, 1-{4-[{4-[(2S)-2,3-dihydro-1,4-benzodioxin-2-yl]benzyl}(methyl)amino]piperidin-1-yl}ethanone]
0.1 nM | 81 nM | CC1CCCCN1Cc1ccc([C@H]2COc3ccccc3O2)cc1 (stereo partly drawn) [Example 68, 1-{4-[(2S)-2,3-dihydro-1,4-benzodioxin-2-yl]benzyl}-2-methylpiperidine]
0.31 nM | 81 nM | CN(Cc1ccc([C@H]2COc3ccccc3O2)cc1)C(C)(C)C [Example 81, N-{4-[(2S)-2,3-dihydro-1,4-benzodioxin-2-yl]benzyl}-N,2-dimethylpropan-2-amine]
0.13 nM | 33 nM | CC(=O)N(C)C1CCN(Cc2ccc([C@H]3COc4ccccc4O3)cc2)C1 (stereo partly drawn) [Example 83, N-(1-{4-[(2S)-2,3-dihydro-1,4-benzodioxin-2-yl]benzyl}pyrrolidin-3-yl)-N-methylacetamide]
0.17 nM | 76 nM | CCN(Cc1ccc([C@H]2COc3ccccc3O2)cc1)C1CCCC1 [Example 109, N-{4-[(2S)-2,3-dihydro-1,4-benzodioxin-2-yl]benzyl}-N-ethylcyclopentanamine]
